# US9492416B2, “Use of caftaric acid and lactic bacterium in food supplement for regulating skin pigmentation” (Nestec S.A., priority 2010, dated 2016)
# Test system: B16 murine melanocyte cell line
# Test: Production of melanin by B16 murine melanocyte cell line
# Assay type: cell-based
# Details: B16 melanocytes, 72 hours; Kojic acid at 400 μg/mL
# Procedure: In order to evaluate the potential beneficial effect of ingredients towards skin de- or pro-pigmentation we used 2D culture of murine melanocytes (B16) and we performed 2 tests: 1—assessment of melanin production and 2—assessment of tyrosinase production.
# 1. The Cell Culture Conditions. • B16 cells were cultured in DMEM 1 g/L glucose without phenol red supplemented with 10% foetal calf serum, in a humidified chamber at 37° C. and containing 5% CO2.
# 2. The Production of Melanin by B16 Murine Melanocyte Cell Line. • Cells were incubated with the selected ingredients or the test references (Kojic acid at 400 μg/mL) for 72 hours, in the presence or absence of NDP-MSH an analog of MSH. The total quantity of melanin (extracellular and intracellular) was evaluated by measurement of the optical density at 405 nm of each sample against melanin standards in presence or in absence of NDP-MSH.
# Caftaric acid has been pre-treated with La-1 [(spray dried culture Lactobacillus Johnsonii CNCM I-1225, 1.19E10 cfu/g) for 24 hours in a thermomixer at 40° C., under shaking conditions. After incubation, samples have been centrifuged 5 minutes at 3000 g. After this treatment the probiotic as such is not present anymore in the sample however the presence of its metabolites can't be excluded.
compound,measurement,value
O=c1cc(CO)occ1O [Kojic acid],melanin production (in words),decrease in melanin production
